Assay results published in patent publication US8962656B2, “CCR2 antagonists” (Boehringer Ingelheim International GmbH, priority 2010, dated 2015).
pKi: −log10 of the molar value.

Molecular target: T1, CCR2 (Homo sapiens, UniProt P41597)
T1 construct: Membranes were prepared from THP-1 cells; endogenous in cells; host or cells: THP-1 (human acute monocytic leukaemia cells), membrane preparation
Assay: CCR2 receptor membrane binding assay ([125I]MCP-1, THP-1 membranes, SPA beads)
Conditions: THP-1 cell membranes, [125I]MCP-1 displacement, bound radioactivity after 8 h; read-out: hKi
Method: The above exemplary substances have been tested for binding to CCR2 using a binding assay as outlined herein below:
THP-1 cells (human acute monocytic leukaemia cells) were cultured under standardized conditions at 37° C. and 5% CO2 in a humidified incubator. THP-1 cells were cultivated in RPMI 1640 medium (Gibco 21875) containing 1% MEM-NEAA (Gibco 11140) 2 mM L-glutamine, 1.5 g/L sodium bicarbonate, 4.5 g/L glucose, 10 mM HEPES and 1.0 mM sodium pyruvate, 90%; 10% fetal calf serum (FCS Gibco 10500-064). Membranes were prepared from THP-1 cells. THP-1 cells were centrifuged at 300×g at 4° C. for 10 min. The cell pellet was resuspendet in Phosphate Buffer Saline (PBS, including 10 μM Pefabloc and a protease inhibitor mix ‘complete’, Boehringer Mannheim (1 tablet/50 ml)), to a concentration of […]. The membrane preparation was performed by disrupting the cells by nitrogen […] (at 50 bar, for 1 h) in a “Nitrogen Bombe” (Parr Instrument). Cell debris was removed by centrifugation (800×g at 4° C., 1 min). The supernatant was centrifuged at 80000×g, 4° C. for 30 min to sediment the cell membranes. Usually 50 mg of protein (Bradford assay) were yielded from 1×10E9 cells. The membranes were resuspendet in 25 mM HEPES, 25 mM MgCl2, 1 mM CaCl2, 10% Glycerine for storage in aliquots at −80° C. in 25 mM HEPES, 25 mM MgCl2, 1 mM CaCl2, 10% Glycerine and stored at −80° C.
Perkin Elmer NEX 332 Jod 125 MCP-1, Stock: 2200 Ci/mmol solved in 2000 μl assay buffer, stored at −20° C. THP-1 membrane were adjusted with 25 mM HEPES, pH 7.2; 5 mM MgCl2; 0.5 mM CaCl2; 0.2% BSA assay buffer to a concentration of 2.5 μg/15 Amersham Biosciences PVT-WGA Beads (RPNQ0001) were adjusted with assay buffer to a concentration of 0.24 mg/30 μl. For preparation of the membrane-bead-suspension membranes and beads were incubated for 30 min at RT under rotation (60 rpm) with a ratio of 1:2. Test compounds dissolved in 100% DMSO to a concentration of 10 mM and are further diluted with 100% DMSO to 1 mM. All additional compound dilutions were obtained with assay buffer, final 1% DMSO. Compounds, membrane-bead-suspension and [125I]MCP-1 (ca. 25000 cpm/10 μl) were incubated. Bound radioactivity was determined by scintillation counter after 8 h. Determination of affinity of test compounds (dissociation constant hKi) is calculated by iterative fitting of experimental data using the “easy sys” program, which is based on law of mass action (Schittkowski K. (1994), Numerische Mathematik, Vol. 68, 129-142).

T1 sequence (P41597 whole entry): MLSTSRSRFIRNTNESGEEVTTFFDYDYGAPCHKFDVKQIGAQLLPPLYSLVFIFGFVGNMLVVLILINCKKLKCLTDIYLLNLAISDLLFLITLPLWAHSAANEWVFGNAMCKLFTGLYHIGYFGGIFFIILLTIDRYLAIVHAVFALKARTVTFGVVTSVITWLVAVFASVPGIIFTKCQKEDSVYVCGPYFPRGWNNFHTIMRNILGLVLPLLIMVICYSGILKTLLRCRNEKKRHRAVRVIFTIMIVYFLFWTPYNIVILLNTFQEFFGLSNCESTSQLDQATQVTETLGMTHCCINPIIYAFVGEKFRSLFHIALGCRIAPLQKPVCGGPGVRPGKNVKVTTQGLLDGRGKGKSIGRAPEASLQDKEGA

Compound | pKi
CO[C@@H]1COCC[C@@H]1NC1CCN(C(=O)c2cncc(NC[C@H]3CCC[C@@H](c4ccc(C)cc4)O3)c2)CC1 [Example 10] | 6.97
CO[C@@H]1COCC[C@@H]1NC1CCN(C(=O)c2cncc(Nc3ccc(Cl)c(Cl)c3)c2C)CC1 [Example 6a] | 7.74
CO[C@@H]1COCC[C@@H]1NC1CCN(C(=O)c2cncc(NC[C@H]3CCC[C@@H](c4ccc(C)cc4)O3)c2C)CC1 [Example 3] | 8.22
CO[C@@H]1COCC[C@@H]1NC1CCN(C(=O)c2cncc(NC[C@H]3CCC[C@@H](c4ccc(C(F)(F)F)cc4)O3)c2)CC1 [Example 9] | 7.57
Cc1c(NCc2ccc(C(C)(C)C)cc2)cncc1C(=O)N1CCC(N2CCC(N(C)S(C)(=O)=O)CC2)CC1 [Example 1] | 6.23
CO[C@@H]1COCC[C@@H]1NC1CCN(C(=O)c2cncc(NC[C@H]3CCC[C@@H](c4ccc(OC(F)(F)F)cc4)O3)c2C)CC1 [Example 5] | 9.00
CO[C@@H]1COCC[C@@H]1NC1CCN(C(=O)c2cncc(NCc3ccc(Cl)c(F)c3)c2C)CC1 [Example 6c] | 6.88
CO[C@@H]1COCC[C@@H]1NC1CCN(C(=O)c2cncc(NCc3ccc(C(F)(F)F)c(Cl)c3)c2C)CC1 [Example 6d] | 7.14
CO[C@H]1COCC[C@H]1NC1CCN(C(=O)c2cncc(NC[C@H]3CCC[C@@H](c4ccc(C)cc4)O3)c2C)CC1 [Example 6] | 7.68
O=C(c1cncc(NC[C@H]2CCC[C@@H](c3ccc(C(F)(F)F)cc3)O2)c1)N1CCC(NC2CCOCC2F)CC1 (some centres unmarked) [Example 8] | 7.00
CO[C@H]1COCC[C@H]1NC1CCN(C(=O)c2cncc(Nc3ccc(Cl)c(Cl)c3)c2C)CC1 [Example 6b] | 7.07
CO[C@H]1COCC[C@H]1NC1CCN(C(=O)c2cncc(NC[C@H]3CCC[C@@H](c4ccc(OC(F)(F)F)cc4)O3)c2C)CC1 [Example 4] | 8.70
Cc1c(NC[C@H]2CCC[C@@H](c3ccccc3)C2)cncc1C(=O)N1CCC(N2CCC(N(C)S(C)(=O)=O)CC2)CC1 [Example 2] | 7.38
CO[C@H]1COCC[C@H]1NC1CCN(C(=O)c2cncc(NC[C@H]3CCC[C@@H](c4ccc(C(F)(F)F)cc4)O3)c2)CC1 [Example 7] | 7.40
